Measured values from patent publication US20240216589A1, “DRUG DELIVERY COMPOSITIONS AND METHODS OF CONTROLLING DRUG DELIVERY RATES OF SUBCUTANEOUS SENSORS” (ABBOTT DIABETIS CARE INC., priority 2022, published 2024).

Assay: Dex solubility in the polyvinylpyridine-ethanol:water (95:5 by volume) solution
Type: physicochemical
Protocol: FIG. 33 illustrates the Dex solubility in the polyvinylpyridine-ethanol:water (95:5 by volume) solution according to certain embodiments of the present disclosure. The solubility of Dex in the PVP-ethanol:water solution was measured. For the solutions containing 0 wt %-30 wt % of Dex relative to the weight amount of PVP polymer, after the solutions were vortexed/sonicated within 15 minutes, the solutions became clear. […] Therefore, the drug delivery composition can include up to 40 wt % of Dex relative to the amount of copolymer to make a clear drug delivery composition.

With `C[C@@H]1C[C@H]2[C@@H]3CCC4=CC(=O)C=C[C@]4(C)[C@@]3(F)[C@@H](O)C[C@]2(C)[C@@]1(O)C(=O)CO` [Dex, dexamethasone] the solution clarity (0 wt %-30 wt % of Dex relative to PVP, vortexed/sonicated within 15 minutes) was “became clear”, the solution clarity (40 wt % of Dex relative to PVP, mixing overnight on the nutator) was “became clear after mixing overnight” and the solution clarity (50 wt % of Dex relative to PVP, mixing overnight on the nutator) was “did not become clear”. For the same molecule, the “maximum Dex relative to the amount of copolymer to make a clear drug delivery composition” value (ethanol:water 95:5 by volume) was “up to 40 wt %”.
